≈ marks a conversion by molar mass, not a printed value. Calls of active or inactive are those of the source. The rule behind the calls is not given here. Peptide text beside a SMILES is read from it.
Legend:
HeLa [1] = experiment: Antiproliferative activity against human HeLa cells assessed as reduction in cell viability after 48 hrs by MTT assay; type: functional, cell-based
HeLa [2] = experiment: Antiproliferative activity against human HeLa cells assessed as cell viability at 10.2 uM after 48 hrs by MTT assay relative to control; type: functional; settings: read-out: Activity
HeLa [3] = experiment: Antiproliferative activity against human HeLa cells assessed as cell viability at 10.2 uM in presence of 6.3 uM cisplatin after 48 hrs by MTT assay relative to control; type: functional
BE(2)-C [4] = experiment: Antiproliferative activity against human BE(2)-C cells assessed as cell viability at 10.3 uM after 48 hrs by MTT assay relative to control; type: functional; settings: read-out: Activity
BE(2)-C [5] = experiment: Antiproliferative activity against human BE(2)-C cells assessed as cell viability at 10.3 uM in presence of 5.3 uM cisplatin after 48 hrs by MTT assay relative to control; type: functional
[6] = biological target: 20S proteasome (Homo sapiens) (UniProt P49721+P20618+P28074+P28062+P28065+P28072+P25786+P25787+P25788+P25789+P28066+P60900+O14818+Q8TAA3+P40306+A5LHX3+P49720+P28070+Q99436); experiment: Inhibition of 20S proteasome in human HeLa cells at 2xIC50 using LLVY-R110 peptide as substrate measured up to 36 hrs by fluorescence based assay; type: cell-based
HeLa [7] = experiment: Induction of membrane disruption in human HeLa cells assessed as red fluorescence at 2xIC50 after 24 hrs by SYTO9/PI-staining based inverted fluorescence microscopic analysis; settings: Cell membrane
BE(2)-C [8] = experiment: Induction of membrane disruption in human BE(2)-C cells assessed as membrane lysis at 2xIC50 after 24 hrs by SYTO9/PI-staining based inverted fluorescence microscopic analysis; settings: Cell membrane
HeLa [9] = experiment: Induction of apoptosis in human HeLa cells assessed as DNA damage at 2xIC50 after 24 hrs by SYTO9/PI-staining based inverted fluorescence microscopic analysis; type: functional, cell-based
BE(2)-C [10] = experiment: Induction of apoptosis in human BE(2)-C cells assessed as condensed chromatin at 2xIC50 after 24 hrs by Hoechst-33342 staining based inverted fluorescence microscopic analysis; type: functional, cell-based
HeLa [11] = experiment: Induction of apoptosis in human HeLa cells at 2xIC50 after 24 hrs by Annexin-V alexa fluor 488/PI staining based fluorescence microscopic analysis; type: functional, cell-based
HeLa [12] = experiment: Induction of necrosis in human HeLa cells at 2xIC50 after 24 hrs by Annexin-V alexa fluor 488/PI staining based fluorescence microscopic analysis; type: functional, cell-based
HeLa [13] = experiment: Induction of apoptosis in human HeLa cells assessed as necrotic cells at 2xIC50 after 24 hrs by Alexa flour 488 annexin V/PI- staining based flow cytometric analysis relative to control; type: functional
BE(2)-C [14] = experiment: Induction of apoptosis in human BE(2)-C cells assessed as apoptotic cells at 2xIC50 after 24 hrs by Alexa flour 488 annexin V/PI- staining based flow cytometric analysis relative to control; type: functional
BE(2)-C [15] = experiment: Induction of apoptosis in human BE(2)-C cells assessed as DNA damage at 2xIC50 after 24 hrs by Hoechst-33342 staining based inverted fluorescence microscopic analysis; type: functional, cell-based
BE(2)-C [16] = experiment: Induction of ROS generation in human BE(2)-C cells at 0.4 to 200 uM after 24 hrs in presence of ROS quencher, ascorbic acid by DCFH-DA staining based fluorescence analysis; type: functional, cell-based
HeLa [17] = experiment: Induction of ROS generation in human HeLa cells at 2xIC50 measured up to 24 hrs in presence of ROS quencher, ascorbic acid by DCFH-DA staining based fluorescence analysis; type: functional, cell-based
BE(2)-C [18] = experiment: Induction of membrane disruption in human BE(2)-C cells assessed as increase in cell debris with damaged membrane at 2xIC50 after 12 hrs by SEM analysis; type: cell-based
Candida albicans SC5314 = experiment: Inhibition of Candida albicans SC5314 proteasome at antifungal MIC after 12 hrs by fluorescence based analysis
Candida albicans [19] = experiment: Antifungal activity against Candida albicans SC5314 after 48 hrs; type: functional; settings: SC5314, 48 h
Candida albicans [20] = experiment: Antibiofilm activity against 24 hrs preformed biofilm of Candida albicans SC5314 assessed as biofilm cell eradication at 125 uM after 24 hrs by XTT assay relative to control; type: functional
Candida albicans [21] = experiment: Induction of pore formation in Candida albicans SC5314 membrane at 2xMBEC by SEM analysis; type: organism-based; settings: Cell membrane
HeLa [22] = experiment: Antiproliferative activity against human HeLa cells assessed as cell viability at 4.7 uM in presence of 6.3 uM cisplatin after 48 hrs by MTT assay relative to control; type: functional
BE(2)-C [23] = experiment: Antiproliferative activity against human BE(2)-C cells assessed as cell viability at 4.7 uM in presence of 5.3 uM cisplatin after 48 hrs by MTT assay relative to control; type: functional
HeLa [24] = experiment: Antiproliferative activity against human HeLa cells assessed as cell viability at 4.7 uM after 48 hrs by MTT assay relative to control; type: functional; settings: read-out: Activity
BE(2)-C [25] = experiment: Antiproliferative activity against human BE(2)-C cells assessed as cell viability at 4.7 uM after 48 hrs by MTT assay relative to control; type: functional; settings: read-out: Activity
Candida albicans [26] = experiment: Antibiofilm activity against 24 hrs preformed biofilm of Candida albicans SC5314 assessed as biofilm cell eradication at 62.5 uM after 24 hrs by XTT assay relative to control; type: functional

Structure (SMILES)	IC50 (HeLa [1])	inhibition [6]	Activity (HeLa [7])	Activity (BE(2)-C [8])	Activity (HeLa [9])	Activity (BE(2)-C [10])	Activity (HeLa [11])	Activity (HeLa [12])	Activity (HeLa [13])	Activity (BE(2)-C [14])	Activity (BE(2)-C [15])	Activity (BE(2)-C [16])	Activity (HeLa [17])	Activity (BE(2)-C [18])	inhibition (Candida albicans SC5314)	MIC (Candida albicans [19])	Activity (Candida albicans [21])	other results
CC(=O)N[C@@H](Cc1ccc(O)cc1)C(=O)NCC(=O)N[C@@H](CCCNC(=N)N)C(=O)N[C@@H](CCCCN)C(=O)N[C@@H](CCCCN)C(=O)N[C@@H](CCCNC(=N)N)C(=O)N[C@@H](CCCNC(=N)N)C(=O)N[C@@H](CCC(N)=O)C(=O)N[C@@H](CCCNC(=N)N)C(=O)N[C@@H](CCCNC(=N)N)C(=O)N[C@@H](CCCNC(=N)N)C(=O)NCC(=O)NCC(=O)NCC(=O)N[C@@H](CC(C)C)C(=O)N[C@@H](CC(C)C)C(=O)N[C@H](C=O)CC(C)C (Ac-YGRKKRRQRRRGGGLLL-aldehyde)	10.2 µM	Active	Active	Active	Active	Active	Active	Active	4.8%	27.2%	Active	inactive	inactive	Active	Active	31.2 µM (≈ 65.5 µg/mL)	Active	viability at 10.2 µM (HeLa [2]): 52%; Activity (HeLa [3]): 14%; viability at 10.3 µM (BE(2)-C [4]): > 50%; Activity (BE(2)-C [5]): 13%; Activity (Candida albicans [20]): >50%
CC(=O)N[C@@H](Cc1ccc(O)cc1)C(=O)NCC(=O)N[C@@H](CCCNC(=N)N)C(=O)N[C@@H](CCCCN)C(=O)N[C@@H](CCCCN)C(=O)N[C@@H](CCCNC(=N)N)C(=O)N[C@@H](CCCNC(=N)N)C(=O)N[C@@H](CCC(N)=O)C(=O)N[C@@H](CCCNC(=N)N)C(=O)N[C@@H](CCCNC(=N)N)C(=O)N[C@@H](CCCNC(=N)N)C(=O)NCC(=O)NCC(=O)NCC(=O)N[C@@H](Cc1ccc(O)cc1)C(=O)N[C@@H](CC(C)C)C(=O)N[C@@H](Cc1ccccc1)C(=O)N[C@H](C=O)CC(C)C (Ac-YGRKKRRQRRRGGGYLFL-aldehyde)	4.7 µM	Active	Active	Active	Active	Active	Active	Active	2.8%	28.3%	Active	inactive	inactive	Active	Active	15.6 µM (≈ 35.8 µg/mL)	Active	Activity (HeLa [22]): 18%; Activity (BE(2)-C [23]): 11%; viability at 4.7 µM (HeLa [24]): > 50%; viability at 4.7 µM (BE(2)-C [25]): > 50%; Activity (Candida albicans [26]): >50%
